Tests used:
GST-tagged LC3B = biological target: T1, GST-tagged LC3B (Homo sapiens, UniProt Q9GZQ8); experiment: GST-pulldown with purified GST-LC3B and lysates of treated cells; conditions: HEK293T cells treated 100 µM, 1 hour; remaining binding compared to DMSO control
T1 construct: made in house; host or cells: E. coli Rosetta (DE3)
Procedure: A gene encoding for human LC3B protein inserted in a pET-GST expression vector was used as a template. Rosetta (DE3) competent cells were transformed by started procedure, plated on an LB agar plate with ampicillin (100 µg/ml) and left overnight at 37 °C. Overnight culture was prepared from a single colony and shaken at 180 rpm at 37 °C. LB medium with ampicillin was inoculated with overnight culture (10 ml per 500 ml of LB) and shaken until the optical density at 600 nm (OD600) reached a value of approximately 0.6. Protein expression was then induced with 400 µM IPTG and further incubated for 4 hours. Bacterial culture was centrifuged for 20 minutes at 6000 rpm at 4 °C. The pellet was then resuspended in lysis buffer (20 mM TRIS-HCl pH 7.5, 10 mM EDTA, 5 mM EGTA, 150 mM NaCl, 0.5 % NP40, 1 % Triton X-100, 1 mM DTT, 2 mg/ml lysozyme, 0.05 U/µl benzonase, 1x protease inhibitor cocktail). Lysate was then stored at -20 °C over night. Sample was thawed in water bath and sonicated on ice (40 % amplitude, 30 seconds pulse/30 seconds pause cycle). Lysate was centrifuged at 10000xg at 4 °C for half an hour. Meanwhile, 500 µl of glutathione sepharose beads was equilibrated with lysis buffer and then added to the supernatant. The mixture was incubated and rotated at room temperature for 2 hours. After binding of the protein to the beads, beads were spun down at 500xg at 4 °C for 5 minutes. […]

U2OS cells = experiment: MTT cell viability assay; assay type: cell-based, Human
Procedure: The MTT assay is a colorimetric assay for assessing cell viability. NAD(P)H-dependent cellular oxidoreductase enzymes in metabolic active cells reduce the tetrazolium dye MTT 3-(4,5-dimethylthiazol-2-yl)-2,5-diphenyltetrazolium bromide to its insoluble purple formazan. All cell types were seeded in 96 well plates and left over night for attachment. Next day, cells were treated with 100 µM compound I-1 for 24, 48, 72, and 96 hours. For controls, 1 µM staurosporine and 100 nM BafA1 were used. The assay was performed according to manufacturer's instructions and the absorbance of the formazan product was measured at 595 nm.

LC3B [1] = experiment: cellular autophagy screening: LC3B spots by immunocytochemistry and automated confocal imaging; assay type: cell-based; conditions: Table 1-a; relative to negative DMSO control; 100 µM, 1 hour; n.e. means no effect
Procedure: For screening purposes, cells were seeded in 384 well plates and left over night for attachment.
Afterwards, medium was removed and 4 % (w/v) paraformaldehyde (PFA) in PBS buffer was added to the cells for 20 minutes, incubated at room temperature. Cells were permeabilized with 0.1 % (v/v) Triton X-100 for 10 min at room temperature and washed with PBS. Cells were blocked with 3 % (w/v) bovine serum albumin (BSA) in PBS for 45 minutes at 37 °C and then incubated with anti-LC3B (PM036, MBL) or anti-p62 (PM045 or M162-3, MBL) primary antibody diluted in 0.3 % BSA (1:2000 or 1:500) for 1.5-2 hours at 37 °C. Cells were washed three times with PBS.
384 well plates were then analyzed with an automated confocal microscope Opera (PerkinElmer) enabling high throughput high content screening image analysis. […] A water immersion 60x objective was used for optical slicing and stacking (5x0.5 µm stacks). […] Signal was detected with a fast gated CCD camera. Acapella software (PerkinElmer) is an algorithm based high content imaging and analysis software used in multi-parametric multiplex assays. Acapella was used to follow cell viability (i.e. number of cells) and the number of LC3B and p62 spots per cell.
The LC3B protein is a ubiquitin-like protein that can be conjugated to phosphatidylethanolamine (PE) in the membrane of the incipient autophagosome. The nonlipidated and lipidated forms are usually referred to as LC3B-I and LC3B-II, respectively. […] Autophagic flux is often inferred on the basis of LC3B-II turnover, measured by western blot (WB) or immunofluorescence (IF) in the presence and absence of lysosomal degradation. […] Lysosomal degradation can be prevented e.g. through the use of compounds that neutralize the lysosomal pH such as Bafilomycin A1 (BafA1) or chloroquine (CQ). […] An additive or supra-additive effect in LC3B-II levels (WB) and LC3B-positive punctae numbers (IF) may indicate that the treatment enhances autophagic flux. […] This assay can be complemented by simultaneous monitoring of autophagosomal substrates or autophagosomal substrate receptors (e.g. SQSTM1/p62) by WB and/or IF. For example, an increase in LC3B-II levels in combination with the accumulation of SQSTM1/p62 is indicative of a blockage of the autophagy pathway at terminal stages.

LC3B [2] = biological target: T2, LC3B (Homo sapiens, UniProt Q9GZQ8); experiment: AlphaScreen interaction displacement assay (GST-LC3B / biotin-LIRtide); assay type: binding; conditions: Table 1-a; n.e. means no effect; read-out: LC3B inhibition cell free IC50
T2 construct: made in house; host or cells: E. coli Rosetta (DE3)
Procedure: The AlphaScreen assay contained 50 mM Tris (pH 7.5), 100 mM NaCl, 0.01% Tween 20, 2 mM DTT, 1 % DMSO and 2-30 nM GST-LC3B and biotin-LIRtide 2-30 nM. The concentrations of GST-LC3B and biotin-LIRtide were experimentally chosen from a cross-titration assay exploring the different combinations of for each batch of protein used and when a new batch of buffer was prepared.
A gene encoding for human LC3B protein inserted in a pET-GST expression vector was used as a template. Rosetta (DE3) competent cells were transformed by started procedure, plated on an LB agar plate with ampicillin (100 µg/ml) and left overnight at 37 °C. Overnight culture was prepared from a single colony and shaken at 180 rpm at 37 °C. LB medium with ampicillin was inoculated with overnight culture (10 ml per 500 ml of LB) and shaken until the optical density at 600 nm (OD600) reached a value of approximately 0.6. Protein expression was then induced with 400 µM IPTG and further incubated for 4 hours. Bacterial culture was centrifuged for 20 minutes at 6000 rpm at 4 °C. The pellet was then resuspended in lysis buffer (20 mM TRIS-HCl pH 7.5, 10 mM EDTA, 5 mM EGTA, 150 mM NaCl, 0.5 % NP40, 1 % Triton X-100, 1 mM DTT, 2 mg/ml lysozyme, 0.05 U/µl benzonase, 1x protease inhibitor cocktail). Lysate was then stored at -20 °C over night. Sample was thawed in water bath and sonicated on ice (40 % amplitude, 30 seconds pulse/30 seconds pause cycle). Lysate was centrifuged at 10000xg at 4 °C for half an hour. Meanwhile, 500 µl of glutathione sepharose beads was equilibrated with lysis buffer and then added to the supernatant. The mixture was incubated and rotated at room temperature for 2 hours. After binding of the protein to the beads, beads were spun down at 500xg at 4 °C for 5 minutes. Pellet was then washed with cold wash buffer at least four times (20 mM Tris-HCl pH 7.5, 10 mM EDTA, 5 mM EGTA, 150 mM NaCl, 1 mM DTT), dried and stored in 5 % glycerol at 4 °C.

binding of p62 and ATG13 to GST-tagged LC3B (GST-tagged LC3B): approximately 50%
IC50 (LC3B [2]): 6 µM
SMILES: Brc1ccc(CSC2=NCN(Cc3cccnc3)CN2)cc1 [Compound I-1, 6-((4-bromobenzyl)thio)-3-(pyridin-3-ylmethyl)-1,2,3,4-tetrahydro-1,3,5-triazine]
cell survival (U2OS cells; 72 and 96 hours): almost no cell survival
cell viability (U2OS cells; 24 hours, 100 µM): decreased viability
LC3B inhibition cell based Fold increase of LC3B spots [DMSO control 1.0] (LC3B [1]): 4.9
